Experimental data published in PubChem BioAssay AID330 (DTP/NCI, 2004).
Where “and” joins values, the source holds several entries; their conditions need not be identical. Identical values can stand only once. Inconclusive results and toxic doses are left out. Rule for the calls: active = survival T/C of 150% or more; inactive = T/C below 125% in these data.

Test system: P388 leukemia ip, CD2F1 mice, survival T/C
Assay: NCI In Vivo Anticancer Drug Screen. Data for tumor model P388 Leukemia (intraperitoneal) in CD2F1 (CDF1) mice
Conditions: endpoint: median survival time, higher = longer survival
In short: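 Mice carrying the transplanted tumor received test compound or vehicle. Survival was recorded in each group, and the value is the treated-group measurement divided by that of the vehicle-treated control group.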

[1] = dose: 50.0 mg/kg/injection, schedule: Q01DX009 (ip), vehicle: saline
[2] = dose: 100.0 mg/kg/injection, schedule: Q01DX009 (ip), vehicle: saline
[3] = dose: 200.0 mg/kg/injection, schedule: Q01DX009 (ip), vehicle: saline
[4] = dose: 60.0 mg/kg/injection, schedule: Q01DX005 (ip), vehicle: saline
[5] = dose: 120.0 mg/kg/injection, schedule: Q01DX005 (ip), vehicle: saline
[6] = dose: 240.0 mg/kg/injection, schedule: Q01DX005 (ip), vehicle: saline
[7] = dose: 60.0 mg/kg/injection, schedule: Q01DX005 (ip), vehicle: saline with Tween-80
[8] = dose: 120.0 mg/kg/injection, schedule: Q01DX005 (ip), vehicle: saline with Tween-80
[9] = dose: 240.0 mg/kg/injection, schedule: Q01DX005 (ip), vehicle: saline with Tween-80
[10] = dose: 100.0 mg/kg/injection, schedule: Q01DX009 (ip), vehicle: saline with Tween-80
[11] = dose: 200.0 mg/kg/injection, schedule: Q01DX009 (ip), vehicle: saline with Tween-80
[12] = dose: 50.0 mg/kg/injection, schedule: Q01DX005 (ip), vehicle: Klucel (hydroxypropylcellulose) (HPC)
[13] = dose: 100.0 mg/kg/injection, schedule: Q01DX005 (ip), vehicle: Klucel (hydroxypropylcellulose) (HPC)
[14] = dose: 200.0 mg/kg/injection, schedule: Q01DX005 (ip), vehicle: Klucel (hydroxypropylcellulose) (HPC)
[15] = dose: 50.0 mg/kg/injection, schedule: Q01DX009 (ip), vehicle: saline with Tween-80
[16] = dose: 60.0 mg/kg/injection, schedule: Q01DX005 (ip), vehicle: Klucel (hydroxypropylcellulose) (HPC)
[17] = dose: 120.0 mg/kg/injection, schedule: Q01DX005 (ip), vehicle: Klucel (hydroxypropylcellulose) (HPC)
[18] = dose: 240.0 mg/kg/injection, schedule: Q01DX005 (ip), vehicle: Klucel (hydroxypropylcellulose) (HPC)
[19] = dose: 50.0 mg/kg/injection, schedule: Q01DX005 (ip), vehicle: saline with Tween-80
[20] = dose: 100.0 mg/kg/injection, schedule: Q01DX005 (ip), vehicle: saline with Tween-80

Measured: T/C

OCC1C=Cc2ccccc21 (stereo not given)
inactive: [1] 109 % of control | [2] 107 % of control | [3] 114 % of control

Cc1nn(-c2ccccc2)c2oc3ccccc3c(=O)c12
inactive: [4] 92 % of control | [5] 100 % of control | [6] 96 % of control

O=C1/C(=C/c2ccc([N+](=O)[O-])cc2)Cc2c1cccc2[N+](=O)[O-]
inactive: dose: 25.0 mg/kg/injection, schedule: Q01DX001 (ip), vehicle: saline with Tween-80 98 % of control | dose: 50.0 mg/kg/injection, schedule: Q01DX001 (ip), vehicle: saline with Tween-80 98 % of control | dose: 100.0 mg/kg/injection, schedule: Q01DX001 (ip), vehicle: saline with Tween-80 99 % of control and 95 % of control | dose: 200.0 mg/kg/injection, schedule: Q01DX001 (ip), vehicle: saline with Tween-80 93 % of control | dose: 400.0 mg/kg/injection, schedule: Q01DX001 (ip), vehicle: saline with Tween-80 89 % of control

O=C(NNC(=S)NC1OC(CO)C(O)C(O)C1O)c1cccc(C(=O)NNC(=S)NC2OC(CO)C(O)C(O)C2O)n1 (stereo not given)
inactive: [7] 97 % of control | [4] 106 % of control | [8] 100 % of control | [5] 106 % of control | [9] 96 % of control | [6] 101 % of control

Cc1c(C)c2c(c(C)c1O)CCC(C)(CCCC(C)CCCC(C)CCCC(C)C)O2 (stereo not given)
inactive: dose: 42.5 mg/kg/injection, schedule: Q01DX001 (ip), vehicle: olive oil, sesame oil, peanut oil 104 % of control | dose: 50.0 mg/kg/injection, schedule: Q01DX009 (ip), vehicle: olive oil, sesame oil, peanut oil 106 % of control | dose: 85.0 mg/kg/injection, schedule: Q01DX001 (ip), vehicle: olive oil, sesame oil, peanut oil 98 % of control | dose: 100.0 mg/kg/injection, schedule: Q01DX009 (ip), vehicle: olive oil, sesame oil, peanut oil 100 % of control | [10] 100 % of control | dose: 100.0 mg/kg/injection, schedule: Q04DX003 (ip), vehicle: saline with Tween-80 100 % of control | dose: 170.0 mg/kg/injection, schedule: Q01DX001 (ip), vehicle: olive oil, sesame oil, peanut oil 100 % of control and 97 % of control | dose: 200.0 mg/kg/injection, schedule: Q01DX009 (ip), vehicle: olive oil, sesame oil, peanut oil 103 % of control | [11] 104 % of control | dose: 200.0 mg/kg/injection, schedule: Q04DX003 (ip), vehicle: saline with Tween-80 100 % of control | dose: 340.0 mg/kg/injection, schedule: Q01DX001 (ip), vehicle: olive oil, sesame oil, peanut oil 91 % of control | dose: 400.0 mg/kg/injection, schedule: Q01DX009 (ip), vehicle: Klucel (hydroxypropylcellulose) (HPC) 102 % of control | dose: 400.0 mg/kg/injection, schedule: Q01DX009 (ip), vehicle: saline with Tween-80 100 % of control | dose: 400.0 mg/kg/injection, schedule: Q04DX003 (ip), vehicle: saline with Tween-80 87 % of control | dose: 800.0 mg/kg/injection, schedule: Q01DX009 (ip), vehicle: Klucel (hydroxypropylcellulose) (HPC) 101 % of control | dose: 1200.0 mg/kg/injection, schedule: Q01DX009 (ip), vehicle: Klucel (hydroxypropylcellulose) (HPC) 106 % of control | dose: 1600.0 mg/kg/injection, schedule: Q01DX009 (ip), vehicle: Klucel (hydroxypropylcellulose) (HPC) 113 % of control | dose: 42.5 IU/animal/injection, schedule: Q01DX001 (ip), vehicle: olive oil, sesame oil, peanut oil 102 % of control and 110 % of control | dose: 85.0 IU/animal/injection, schedule: Q01DX001 (ip), vehicle: olive oil, sesame oil, peanut oil 102 % of control and 105 % of control and 107 % of control | dose: 170.0 IU/animal/injection, schedule: Q01DX001 (ip), vehicle: olive oil, sesame oil, peanut oil 101 % of control and 113 % of control (2×) | dose: 340.0 IU/animal/injection, schedule: Q01DX001 (ip), vehicle: olive oil, sesame oil, peanut oil 102 % of control and 104 % of control

ClC1=C(Cl)C2(Cl)C3C(c4ccc(I)cc4C4C3C3(Cl)C(Cl)=C(Cl)C4(Cl)C3(Cl)Cl)C1(Cl)C2(Cl)Cl (stereo not given)
inactive: [1] 105 % of control | [2] 108 % of control | [3] 105 % of control

CC(C)(C)c1cc2c(O)c(c1)Cc1cc(C(C)(C)C)cc(c1O)Cc1cc(C(C)(C)C)cc(c1O)Cc1cc(C(C)(C)C)cc(c1O)C2
inactive: [12] 100 % of control | [13] 102 % of control | [14] 96 % of control

CCCCOCC1CO1 (stereo not given)
inactive: dose: 25.0 mg/kg/injection, schedule: Q01DX009 (ip), vehicle: saline with Tween-80 100 % of control | [15] 100 % of control | [10] 95 % of control | [11] 90 % of control

CC(=O)Nc1cc2cc(NC(=O)C(Cl)(Cl)Cl)ccc2oc1=O
inactive: [16] 98 % of control | [17] 100 % of control | [18] 100 % of control

CC1(C)CCC2(C(=O)O)CCC3(C)C(=CCC4C5(C)CC(O)C(O)C(C)(C(=O)O)C5CCC43C)C2C1 (stereo not given)
inactive: dose: 1.0 mg/kg/injection, schedule: Q01DX005 (ip), vehicle: saline 96 % of control | dose: 2.03 mg/kg/injection, schedule: Q01DX005 (ip), vehicle: saline 94 % of control | dose: 4.06 mg/kg/injection, schedule: Q01DX005 (ip), vehicle: saline 87 % of control | dose: 8.12 mg/kg/injection, schedule: Q01DX005 (ip), vehicle: saline 90 % of control

c1ccc2nc(N3CCCCC3)c(N3CCCCCC3)nc2c1
inactive: [12] 97 % of control | [13] 100 % of control | [14] 99 % of control

CC[N+](C)(C)c1ccc(/C=C(/C#N)C(=O)OC)cc1
inactive: [15] 100 % of control | [10] 103 % of control

O=C(Nc1ccc(Cl)cc1)Nc1nnc(-c2ccc(Cl)cc2Cl)o1
inactive: [7] 91 % of control | [8] 86 % of control | [9] 97 % of control

c1ccc2c(c1)C[n+]1ccc3ccccc3c1-c1c3ccccc3cc[n+]1C2
inactive: dose: 12.5 mg/kg/injection, schedule: Q01DX001 (ip), vehicle: saline 100 % of control | dose: 25.0 mg/kg/injection, schedule: Q01DX001 (ip), vehicle: saline 107 % of control

C=CCNC(=S)N/N=C(\CCC)c1ccccn1
inactive: [19] 114 % of control | [20] 121 % of control

Brc1cc2c(cc1CC1NCCc3cc4c(cc31)OCO4)OCO2 (stereo not given)
inactive: dose: 50.0 mg/kg/injection, schedule: Q01DX001 (ip), vehicle: saline + alcohol 97 % of control | dose: 100.0 mg/kg/injection, schedule: Q01DX001 (ip), vehicle: saline + alcohol 100 % of control | dose: 200.0 mg/kg/injection, schedule: Q01DX001 (ip), vehicle: saline + alcohol 103 % of control

CC(C)[Si]1(C(C)C)N[Si](C(C)C)(C(C)C)N[Si](C(C)C)(C(C)C)N1
inactive: [16] 108 % of control | [17] 93 % of control | [18] 100 % of control

C=C1C(=O)C23CC1CCC2C12COC(OC(=O)CCCCCCCCCCCCCCC)C1C(C)(C)C(O)CC2OC3=O (stereo not given)
inactive: dose: 7.5 mg/kg/injection, schedule: Q01DX009 (ip), vehicle: saline with Tween-80 96 % of control | dose: 15.0 mg/kg/injection, schedule: Q01DX009 (ip), vehicle: saline with Tween-80 99 % of control | dose: 30.0 mg/kg/injection, schedule: Q01DX009 (ip), vehicle: saline with Tween-80 97 % of control | dose: 60.0 mg/kg/injection, schedule: Q01DX009 (ip), vehicle: saline with Tween-80 100 % of control

CCN(CC)CCC(=O)/C=C/c1ccccc1
inactive: dose: 25.0 mg/kg/injection, schedule: Q01DX009 (ip), vehicle: saline 111 % of control | [1] 116 % of control and 118 % of control

Cc1ccccc1NP1(=O)OCCCN1Cc1ccccc1Cl (stereo not given)
inactive: [19] 99 % of control | [20] 93 % of control | dose: 200.0 mg/kg/injection, schedule: Q01DX005 (ip), vehicle: saline with Tween-80 93 % of control

NC(C(=O)O)c1cc(=O)[nH]o1 (stereo not given)
inactive: dose: 2.5 mg/kg/injection, schedule: Q01DX009 (ip), vehicle: Klucel (hydroxypropylcellulose) (HPC) 98 % of control | dose: 5.0 mg/kg/injection, schedule: Q01DX009 (ip), vehicle: Klucel (hydroxypropylcellulose) (HPC) 93 % of control | dose: 10.0 mg/kg/injection, schedule: Q01DX009 (ip), vehicle: Klucel (hydroxypropylcellulose) (HPC) 101 % of control
